This passage reports melting point results from a melting point compilation (Tetko et al.; mined from patent text by program, amines drawn as free bases though some values may be those of a salt).

For `Oc1ccc(OCCOc2ccccc2)cc1`, the melting point (in general, the temperature, or range, at which the solid turns liquid) was 156 °C.
For `CC(=O)SCC(C(=O)NC(Cc1ccc(O)c(O)c1)C(=O)O)C(F)(F)F` (configuration not stated) the value was 175 to 184 °C.
As for `CCC(=O)C1=C(O)CC(c2ccc(Oc3cccc(S(C)(=O)=O)c3)cc2)CC1=O` (configuration not stated), the melting point was in the range of 110 to 114 °C.
Compound `CN1CCN(CCCOc2ccc(Nc3ncc4ccc(-c5cccnc5)n4n3)cc2)CC1` registered a melting point of 135 to 139 °C.
As for `CCOc1ccc(Nc2nc(NC(CO)CO)nc(N(C)C3CCN(C)CC3)n2)cc1Cl`, the melting point is 84 °C.
Next, `CCOC(=O)c1c(O)c2ccc(Br)cc2c(=O)n1CC1CC1`: 105 to 106 °C; `O=C(CCCl)N(c1ccccc1)c1ccccc1`: 93 to 94 °C; `C[C@@H]1NC(=O)c2cccc([N+](=O)[O-])c2N[C@H]1C` (relative stereo): 170 °C.
With `COc1cc2c(cc1Cl)NC(=O)c1ccccc1S2`, the melting point was 280 to 283 °C.
The compound `COc1cccc2c(=O)c3ccc(Cl)cc3oc12` yielded a melting point of 201 to 202 °C.
Consider `CC(C)(C)C(=O)c1ccc(CC(Cc2ccc(C(=O)C(C)(C)C)cc2)C(=O)O)cc1`, for which the melting point lay in the range of 107 to 109 °C.
Next, `Cc1ccc2c(c1)c(C=O)c(Cl)n2C`: 120 to 121 °C; `Cc1ccc(S(=O)(=O)N(C)c2ncc(Cl)cc2[N+](=O)[O-])cc1`: 141 to 143 °C.
For `Oc1ccc(C2=NCCO2)cc1` the value was 162 to 163 °C.
Compound `CCCCC(=O)NNC(=O)c1ccncc1` had a melting point of 162 °C.
With `CCCCCCCCCCCCCCCCc1nc(N(C)C)nc(OC)c1O`, the melting point is 78 to 79 °C.
`CC(=O)OCc1cccc2sc(-c3ccccc3)nc12`: the melting point is 83 to 84 °C.
Regarding `CCOC(=O)c1c(C(F)(F)F)nc(C(F)(F)Cl)c(C(=O)OC)c1N`, the melting point is 69 to 70 °C.
Take `CC1(C)CC(=O)Nc2ccc(-c3cccc(F)c3)cc21`: the melting point was in the range of 190 to 192 °C.
Next, `OCCCc1conc1-c1ccc(Cl)c(Cl)c1`: 62 to 63 °C.
The compound `O=C1CCCN2N=C(c3ccc(Br)cc3)SC2=N1` showed a melting point of 204 to 207 °C.
For the compound `Cc1nn(-c2ccccn2)c2[nH]c3ccccc3c(=O)c12`, the melting point lay in the range of 199 to 200 °C.
Consider `CCc1[nH]c(=O)[nH]c1C(=O)c1ccc(C#N)cc1`, for which the melting point was 269 to 271 °C.
In turn, `CCCc1nc2c(N)nc3cccnc3c2n1CCCCS(=O)(=O)NC` showed a melting point of 174 to 175 °C.
As to `CCCOc1nc2ccccc2c2c1CNC2=O`, the melting point was in the range of 170 to 171 °C.
With `O=C(O)Cn1c(=O)c(=O)[nH]c2c([N+](=O)[O-])c(Br)c(Br)cc21`, the melting point lay within 260 to 264 °C.
Next, `CCCSc1ncnc2c(N3CCCCC3)nc(Cl)nc12`: 107 to 109 °C; `CC(=O)Nc1ccc(OC(=O)c2cc(OC(C)=O)ccc2OC(C)=O)cc1`: 148 to 150 °C.
For `COCCOC(=O)OC[C@@H](O)[C@@H]1CC(c2ccc(-c3ccc(N4C[C@H](Cn5ccnn5)OC4=O)cc3F)cn2)=NO1` the value was 125 °C; for `Nc1cccnc1C1CCN(c2cc3c(cc2F)c(=O)c(C(=O)O)cn3C2CC2)C1` (configuration not stated), more than 270 °C.
With `Cc1ccccc1-c1nc(=S)n(Cc2ccccc2)[nH]1`, the melting point was 150 to 153 °C.
For `COC(=O)c1ccc([N+](=O)[O-])cc1-n1c(CCl)nc2ccccc2c1=O` the value was 158 to 159 °C; for `Cc1nc(C)c(CCl)cc1CCl`, 108 to 109 °C; for `CN(Cc1cc(C(F)(F)F)cc(C(F)(F)F)c1)C(=O)c1c(-c2ccc(F)cc2)c2c(c(=O)n1C)CCCN2`, 226 to 228 °C.
Consider `CCOC(=O)OC1=C(c2ccccc2)C(CCC(=O)O)OC1=O` (configuration not stated), for which the melting point was in the range of 139 to 141 °C.
As to `CCCc1nc2ccc(N(C)C)nn2c1S(N)(=O)=O`, the melting point is 215 to 217 °C.
`CN1CCC(=O)C(C2c3ccccc3Sc3ccccc32)C1` (configuration not stated): the melting point lay in the range of 155 to 156 °C.
`CN=C1SCC(O)(c2ccc(Cl)c(S(=O)(=O)NCC(C)OC)c2)N1C` (configuration not stated): the melting point was determined as 148 °C.
Take `CCOC(=O)C1=C(C)NC(C(OCC)OCC)=C(C(=O)OCC)C1c1cc([N+](=O)[O-])ccc1Cl` (configuration not stated): the melting point is 117 to 118 °C.
Take `CC(=O)NCCCCCCCCCCC(=O)O`: the melting point is 62 to 65 °C.
`CC(=O)Nc1cc(C(C)(C)C)nn1C(CCN1C(=O)c2ccccc2C1=O)=NOS(=O)(=O)c1ccc(C)cc1` yielded a melting point of 195 to 201 °C.
Compound `Cc1noc(-c2ccc(F)cc2N)n1` came in with a melting point of 146 to 148 °C.
Regarding `CC(=O)CC(C)c1ccc(-c2ccccc2)cc1` (configuration not stated), the melting point is 67 °C.
Take `O=C1c2cccc(O)c2N=CC2CCCN12` (configuration not stated): the melting point is 146 to 148 °C.
Compound `CC(=O)Nc1ccc(C=CC(=O)c2ccc(OCC=C(C)C)cc2O)cc1` came in with a melting point of 150 to 152 °C.
The compound `Clc1cncc(-n2cccc2)c1` returned a melting point of 70.5 to 72 °C.
Compound `CC(CC(=O)O)C(=O)c1ccc(C(=O)C(C)CC(=O)O)cc1` (configuration not stated) gave a melting point of 195 to 202 °C.
`COc1ccc(-c2nnn(-c3c(Cl)cc(Cl)cc3I)c2N)cc1` gave a melting point of 72.5 to 73.6 °C.
The compound `Cc1[nH]c(=O)[nH]c1C(=O)c1cccs1` registered a melting point of 212 to 215 °C.
Take `CNC(=S)NS(=O)(=O)c1cc(CCNC(=O)c2cnc3ccccc3c2)ccc1OCCOc1ccccc1`: the melting point lay within 89 to 91 °C.
For `Brc1cnc(N=C(c2ccccc2)c2ccccc2)s1`, the melting point was found to be 109 °C.
Next, `CCN(CC)c1ccc(-c2cc(-c3ccc(C(=O)O)cc3)ccc2OCCO)cc1C(C)(C)C`: 216 °C; `Cc1cc(Br)c2c(c1)N(S(=O)(=O)c1ccc(Cl)cc1)CCO2`: 143 to 145 °C.
For `COC(=O)c1ccc(OCCc2nc(-c3ccccc3)oc2C)cc1O` the value was 133 to 134 °C.
For `[N-]=[N+]=NCCCc1cc(-c2ccccc2)n(-c2ccc(S(N)(=O)=O)cc2)n1` the value was 114 to 116 °C; for `S=C1Nc2ccc(Cl)cc2CS1`, 217 to 222 °C.
Turning to `Cc1cc2c(C#N)ccc(C#N)c2cc1C`, the melting point is 225 to 227 °C.
Compound `Cc1cncn1CC#CCn1ccn(C)c1=O` gave a melting point of 149 to 153 °C.
Turning to `COc1ccc(OC)c(S(=O)(=O)c2ccc(Cl)cc2NC(=O)N[C@@H](Cc2ccc(NC(=O)c3c(Cl)cccc3Cl)cc2)C(=O)O)c1`, the melting point was 180 °C.
`O=C(O)c1ccc(OCC2CCCCC2)c([N+](=O)[O-])c1` displayed a melting point of 200 to 202 °C.
Regarding `O=Cc1c2n(c3ccc(Cl)cc13)CCC2`, the melting point fell in the range of 179 to 180 °C.
The compound `COc1ccc(CN(CCN(C)CCN=C(NC#N)NCCSCc2csc(NC(=N)N)n2)c2ccccn2)cc1` came in with a melting point of 56 to 58 °C.
Turning to `Nc1ccc(S(=O)(=O)Nc2ccc(S(N)(=O)=O)cc2)cc1Cl`, the melting point was 197 to 198 °C.
Compound `Cc1ccc(C(C)(C)Cl)cc1C` yielded a melting point of -20 to -19 °C.
Compound `CCCCNc1ncc(C(=O)c2ccc(Cl)c([N+](=O)[O-])c2)s1` had a melting point of 192 to 194 °C.
Next, `CC(C)NCC(O)COc1ccc(C2=NNC(=O)CC2)cc1` (configuration not stated): 108 to 115 °C; `COC=C(C(=O)OC)c1ccccc1Oc1ncnc(F)c1F`: 69 °C; `Oc1cccc(NCc2ccccc2)n1`: 158 to 162 °C.
Next, `COCn1nnc(NC(=O)C(c2ccccc2)c2ccccc2)n1`: 127 to 128 °C; `Nc1cc([N+](=O)[O-])cc2c1CCCC2`: 77 °C.
Compound `CC(c1ccccc1N1CCCCC1)C(C(N)=O)c1ccc(C(=O)N2CCCCC2)cc1` (configuration not stated) returned a melting point of 131 to 133 °C.
`O=C1N(Cc2ccc(OCc3ccccc3)cc2)c2ccccc2C12COc1cc3c(cc12)OCCO3` (configuration not stated) showed a melting point of 87 to 89 °C.
As to `CC1(C)CCC(C)(C)c2cc(C=O)c(C#C[Si](C)(C)C)cc21`, the melting point fell in the range of 78.4 to 82 °C.
For `O=C(Nc1ccc(N2CCN(Cc3ccc[nH]3)CC2)cc1)c1ccccc1-c1ccc(C(F)(F)F)cc1` the value was 191 to 193 °C.
For `O=C(O)Cc1ccc2nc(-c3ccccc3)oc2c1` the value was 170 °C; for `CNc1c2c(nc3ccc([N+](=O)[O-])cc13)CCCC2=O`, 208 °C; for `O=[N+]([O-])c1cc(Cl)c(Cl)cc1N[C@@H]1C[C@H](CO)[C@@H](O)[C@H]1O`, 179 to 181 °C.
In the case of `OC(c1cc2ccccc2c2ccccc12)c1cc2ccccc2c2ccccc12`, the melting point lay in the range of 236 to 238 °C.
For the compound `CCCCc1nc2c(N)nc3cccnc3c2s1`, the melting point was 136 to 138 °C.
As to `CCS(=O)c1cc2c(cc1OC)CCn1c3c(c(Br)c1-2)CCCCN(C(C)(C)C)C3=O` (configuration not stated), the melting point was in the range of 140 to 145 °C.
Regarding `CCOC(=O)Cc1cnc(NC(C)C)nc1Cl`, the melting point lay in the range of 67 to 71 °C.
Compound `CN(C)C1(c2ccccc2)CCC(NC(=S)NCCc2c[nH]c3ccccc23)CC1` (configuration not stated) came in with a melting point of 98 to 103 °C.
The compound `CCOC(=O)C1=C(N(C)C)N=C(C)C(C(=O)OC)C1c1cccc([N+](=O)[O-])c1` (configuration not stated) gave a melting point of 95 °C.
The compound `O=c1ccn2c3ccccc3c3cc(Cl)cc1c32` came in with a melting point of 158 to 159 °C.
As for `COc1ccc2cc(C(OC)(OC)C(C)OS(=O)(=O)c3ccc(C)cc3)ccc2c1` (configuration not stated), the melting point was in the range of 148 to 150 °C.
In the case of `O=C(O)c1cc(Br)cc(C(=O)C=Cc2ccccc2)c1O`, the melting point was more than 250 °C.
For `COc1cccc2c1CN(c1nc3c(cc1F)c(=O)c(C(=O)O)cn3C1CC1)C2` the value was more than 300 °C; for `CC1(C)CC(SCc2cc3c(cc2Cl)OCO3)=NO1`, 88 °C; for `COC(=O)Cc1ccc(C(=O)c2ccccc2)n1C`, 96 to 98 °C.
As for `CCCc1nc2cnccc2s1`, the melting point was in the range of 44 to 47 °C.
As for `Oc1nc2ccc(F)cc2n2c(C(F)(F)F)nnc12`, the melting point was in the range of 298 to 302 °C.
Consider `N#Cc1ccsc1C1=CC(=O)Nc2cc(-c3ccccc3F)c(O)cc2N1`, for which the melting point was 242 °C.
